Test results taken from patent publication US9695240B2, “Anthracycline derivative conjugates, process for their preparation and their use as antitumor compounds” (Genentech, Inc., priority 2008, dated 2017).
Entries after “also recorded” stand apart in the source; their conditions may differ.

What was measured:
SK-BR-3 cells = experiment: CellTiter-Glo in vitro cell proliferation assay, SK-BR-3; type: cell-based
Source text: (§1) Cell-based in vitro assays may be used to measure viability, i.e. proliferation (IC50), cytotoxicity (EC50), and induction of apoptosis (caspase activation) of the ADC. The CellTiter-Glo® Luminescent Cell Viability Assay is a commercially available (Promega Corp., Madison, Wis.), homogeneous assay method based on the recombinant expression of Coleoptera luciferase (U.S. Pat. Nos. 5,583,024; 5,674,713; 5,700,670). This cell proliferation assay determines the number of viable cells in culture based on quantitation of the ATP present, an indicator of metabolically active cells (Crouch et al (1993) J. Immunol. Meth. 160:81-88; U.S. Pat. No. 6,602,677). The CellTiter-Glo® Assay is conducted in 96 well format, making it amenable to automated high-throughput screening (HTS) (Cree et al (1995) AntiCancer Drugs 6:398-404). The homogeneous assay procedure involves adding the single reagent (CellTiter-Glo® Reagent) directly to cells cultured in serum-supplemented medium. Cell washing, removal of medium and multiple pipetting steps are not required. The system detects as few as 15 cells/well in a 384-well format in 10 minutes after adding reagent and mixing.
(§2) The in vitro potency of antibody-drug conjugates was measured by a cell proliferation assay (FIGS. 8-29). The CellTiter-Glo® Luminescent Cell Viability Assay is a commercially available (Promega Corp., Madison, Wis.), homogeneous assay method based on the recombinant expression of Coleoptera luciferase (U.S. Pat. Nos. 5,583,024; 5674,713; 5,700,670). This assay determines the number of viable cells in culture based on quantitation of the ATP present, an indicator of metabolically active cells (Crouch et al (1993) J. Immunol. Meth. 160:81-88; U.S. Pat. No. 6,602,677). The CellTiter-Glo® Assay was conducted in 96 well format, making it amenable to automated high-throughput screening (HTS) (Cree et al (1995) AntiCancer Drugs 6:398-404). The homogeneous assay procedure involves adding the single reagent (CellTiter-Glo® Reagent) directly to cells cultured in serum-supplemented medium.
(§3) The homogeneous “add-mix-measure” format results in cell lysis and generation of a luminescent signal proportional to the amount of ATP present. The substrate, Beetle Luciferin, is oxidatively decarboxylated by recombinant firefly luciferase with concomitant conversion of ATP to AMP and generation of photons. Viable cells are reflected in relative luminescence units (RLU). Data can be recorded by luminometer or CCD camera imaging device. The luminescence output is presented as RLU, measured over time. Alternatively, photons from luminescence can be counted in a scintillation counter in the presence of a scintillant. The light units can be represented then as CPS—counts per second.
(§4) Efficacy of ADC were measured by a cell viability assay employing the following protocol, adapted from CellTiter Glo Luminescent Cell Viability Assay, Promega Corp. Technical Bulletin TB288 and Mendoza et al (2002) Cancer Res. 62:5485-5488: • 1. An aliquot of 50 μl of cell culture containing about 1000 or more cells, including: HER2-expressing and CD22-expressing cells, in medium was deposited in each well of a 96-well, opaque-walled, clear bottom plate. • 2. ADC (50 μl) was added to triplicate experimental wells to final concentration of 10 μg/mL, with “no ADC” control wells receiving medium alone, and incubated for 3 or more days. • 3. The plates were equilibrated to room temperature for approximately 30 minutes. • 4. CellTiter-Glo Reagent (100 μl) was added. • 5. The contents were mixed for 2 minutes on an orbital shaker to induce cell lysis. • 6. The plate was incubated at room temperature for 10 minutes to stabilize the luminescence signal. • 7. Luminescence was recorded and reported in graphs as RLU=relative luminescence units.

BT-474 cells = experiment: CellTiter-Glo in vitro cell proliferation assay, BT-474; type: cell-based
Source text: as §1, §2, §3, §4

MCF7 cells = experiment: CellTiter-Glo in vitro cell proliferation assay, MCF7; type: cell-based, human
Source text: as §1, §2, §3, §4

[1] = test system: doxorubicin-resistant (DoxRes) HER2 cells; experiment: CellTiter-Glo in vitro cell proliferation assay, doxorubicin-resistant HER2; type: cell-based
Source text: as §1, §2, §3, §4

[2] = test system: Burkitt's lymphoma Bjab-luc xenograft tumors; experiment: in vivo Bjab-luc xenograft tumor efficacy study; set-up: species or system CB17 SCID mice
Protocol: The therapeutic effect of the antibody-drug conjugate (ADC) compounds and the improvement of their therapeutic efficacy in comparison with the parent drug, were assessed in animal models of human transplanted tumors. Mice bearing xenografts of human tumors were treated with suitable doses of antibody-drug conjugates, of PNU-159682 free drug, and naked antibody, at certain doses, and the tumor growth was recorded and compared in the different treatment groups. FIGS. 30-32 show the efficacy of the antibody-drug conjugates of Formula Ic by xenograft tumor inhibition in mice.
The efficacy of the antibody-drug conjugates of the invention may be measured in vivo by implanting allografts or xenografts of cancer cells or primary tumors in rodents and treating the tumors with ADC according to the procedures of Example 12. Variable results are to be expected depending on the cell line, the specificity of antibody binding of the ADC to receptors present on the cancer cells, dosing regimen, and other factors. For example, the in vivo efficacy of anti-HER2 ADC may be measured by a high expressing HER2 transgenic explant mouse model. […] Subjects are treated once with ADC and monitored over 3-6 weeks to measure the time to tumor doubling, log cell kill, and tumor shrinkage. Follow up dose-response and multi-dose experiments may be further conducted.
The Bjab-luc (EBV-negative Burkitt's lymphoma, luciferase expressing Bjab cells) tumors express CD22 receptor protein (Polson et al (2009) Cancer Res. 69(6):2358-2364; US 2008/0050310; US 2005/0276812). CD22 is expressed only in the B-cell compartment and on the surface of most NHL cells (D'Arena et al (2000) Am J Hematol. 64:275-81; Olejniczak et al (2006) Immunol Invest. 35:93-114). Efficacy in inhibiting the Bjab-luc xenograft tumor in mice as a model system may predict the clinical response in treating patients with hematopoietic malignancies such as non-Hodgkins lymphoma.
Efficacy studies were performed using SCID mice (Charles River Laboratories). […] When tumor volumes reached 150-200 mm^3 (typically Day 14 to Day 21 after inoculation), the mice were segregated into sample groups of 9-10 mice per group and the tumor volume was determined in each mouse. […] ADC doses were either measured as the mass of the conjugated cytotoxic small molecule drug per surface area of the mouse, or as a constant mass of ADC per mass of the mouse (e.g., 5 mg of ADC/kg mouse). […] Tumor volume was measured using calipers according to the formula: V (mm^3)=0.5A×B^2, where A and B are the long and short diameters, respectively. […] Data collected from each experimental group were expressed as mean±SE.

tumor models = settings: cited from earlier work
[3] = 8.77 ug/kg single iv dose day 0, 48 day study

## COc1cccc2c1C(=O)c1c(O)c3c(c(O)c1C2=O)C[C@@](O)(C(=O)CO)C[C@@H]3O[C@H]1C[C@H]2[C@H](O[C@@H]3[C@@H](OC)OCCN32)[C@H](C)O1 [PNU-159682, 3′-deamino-3″,4′-anhydro-[2″(S)-methoxy-3″(R)-oxy-4″-morpholinyl]doxorubicin, reference compound]
SK-BR-3 cells; brief (1 hr) exposure
  SK-BR-3 in vitro cell viability at 3 days, in words: effectively inhibited growth
SK-BR-3 cells; continuous exposure, 3 days
  SK-BR-3 in vitro cell viability at 3 days, anti-proliferative activity in words: most potently inhibited; also recorded: caused cytotoxicity at all doses tested
BT-474 cells; brief (1 hr) exposure
  BT-474 in vitro cell viability at 3 days, in words: effectively inhibited growth
BT-474 cells; continuous exposure, 3 days
  BT-474 in vitro cell viability at 3 days, anti-proliferative activity in words: most potently inhibited; also recorded: caused cytotoxicity at all doses tested
MCF7 cells; brief (1 hr) exposure
  MCF7 in vitro cell viability at 3 days, in words: effectively inhibited growth
MCF7 cells; continuous exposure, 3 days
  MCF7 in vitro cell viability at 3 days, anti-proliferative activity in words: most potently inhibited; also recorded: caused cytotoxicity at all concentrations tested
[1]; brief (1 hr) exposure
  DoxRes HER2 in vitro cell viability at 3 days, in words: effectively inhibited growth
[1]; continuous exposure, 3 days
  DoxRes HER2 in vitro cell viability at 3 days, anti-proliferative activity in words: most potently inhibited; also recorded: inhibited growth at all concentrations tested
[2]; [3]
  CR-complete tumor regression: 0
  PR-partial tumor regression: 0
  TI-tumor incidence: 9/9
[2]; single dosing on day 0, doses of FIG. 30
  tumor growth inhibition in Bjab-luc xenograft, in words: no effect on tumor growth
Tumor models
  antitumor activity in in vivo tumor models, in words: effective in vivo tumor models
